# Measured values published in patent US7964557B2, “Inhibition of wet type age related macular degeneration (AMD) by adiponectin or acrp 30” (University of Louisville Research Foundation, Inc., priority 2005, dated 2011).
# B1: rAPN: mouse recombinant adiponectin polypeptide of about 30 kDa obtained from BioVision Research Products (protein, UniProt Q60994 18-247, looked up)
# Adiponectin: EDDVTTTEELAPALVPPPKGTCAGWMAGIPGHPGHNGTPGRDGRDGTPGEKGEKGDAGLLGPKGETGDVGMTGAEGPRGFPGTPGRKGEPGEAAYVYRSAFSVGLETRVTVPNVPIRFTKIFYNQQNHYDGSTGKFYCNIPGLYYFSYHITVYMKDVKVSLFKKDKAVLFTYDQYQEKNVDQASGSVLLHLEVGDQVWLQVYGDGDHNGLYADNVNDSTFTGFLLYHDTN
# What was measured:
# laser-induced CNV = assay: laser-induced mouse model of choroidal neovascularization (CNV), CNV size by confocal microscopy; format: in vivo, C57BL/6 mice; conditions: for reduction in CNV size compared to control: p<0.005; for neovascular complex in laser spots, confocal micrograph: compared to control; for reduction of CNV size compared to control mice: injected subretinally into the eye, 5 μg; for reduction of CNV size compared to control mice / decrease in CNV size compared to control mice: control PBS; for decrease in CNV size compared to control mice: day 7 after laser; for effect on CNV size compared among adiponectin peptides (words): mouse model of CNV, route not stated
# Method: Animals (C57BL/6 mice) were divided into 3 groups. CNV was induced by laser photocoagulation in group 1 (n=5) with the krypton red laser (50 μm spot size; 0.05 s duration; 250 mW), as previously described (Bora et al. 2003 Proc. Natl. Acad. Sci. USA 100:2679-2685; Bora et al. 2005 J. Immunol. 174:491-497) and no APN was administered to these mice. Three laser spots were placed in each eye close to the optic nerve. In group 2 (n=5), the mice were treated, i.p., with 25 μg of rAPN, one day before laser photocoagulation and every day after laser treatment until day 6. Group 3 animals received subretinal injections on days 0, 1, and 3 in one eye, the other eye received PBS as control. All the experiments were repeated three times.
# We injected 50 μg peptide NH2-LQVYGDGDHNGLYADNVN-COOH (SEQ ID NO: 1, synthesized at Peptide Biochemical Research Inc. Seattle, USA; dissolved in PBS) intraperitoneally (i.p.) to mice (n=5) as well as intravitreally (i-vit.). Six i.p. injections were given, one preceding laser treatment and five following the laser treatment. Control group was given sterile PBS. One group (n=5) was photocoagulated on day 0 and on day 1 a single 30 μg i-vit. injection was given. All the experiments were repeated three times. Mice were sacrificed following perfusion with FITC dextran on day 7 and eyes removed and fixed in formaldehyde. Choroidal-scleral flat mounts were prepared and processed for immunostaining. Laser confocal micrographs were used to measure the size of CNV by Image-Pro-Plus software (Media Cybernetics, Inc. Silver Spring, Md.).
# Seven days after laser treatment, the eyes of all animals were perfused with 1 ml of PBS containing 50 mg/ml fluorescein-labeled dextran (FITC-dextran; average molecular mass, 2×10^6; Sigma-Aldrich) and the animals were sacrificed. The eyes were harvested and fixed in 10% phosphate-buffered formalin, and retinal pigment epithelium (RPE)-choroid-scleral flat mounts were prepared as previously described (Bora et al. 2003 supra; Bora et al. 2005 supra.). RPE-choroid-scleral flat mounts were stained for elastin using a mAb specific for elastin (1.0 mg/ml; 1/2000 dilution; Sigma-Aldrich) followed by a Cy3-labeled secondary Ab (1.0 mg/ml; 1/2000 dilution; Sigma-Aldrich). The incidence and the size of CNV were determined by confocal microscopy. The size of the CNV complex was graded by morphometric analysis of the images (MetaMorph Image Analysis software package; Universal Imaging) obtained from confocal microscopy.
# VEGF = assay: RT-PCR of VEGF mRNA in choroids of laser-treated mice; format: in vivo, C57BL/6 mice; conditions: APN administered vs laser-treated mice without APN; FIG. 5; listed as APN
# Method: Ten laser spots were placed in each eye of C57BL/6 mice as described below. Animals from each group (n=10/each time point) were sacrificed at days 1, 3, 5, and 7 post-laser treatment, RPE-choroid-scleral tissues harvested from the enucleated eyes were pooled separately for each time point and without laser treatment (control), and total RNA was prepared using SV Total RNA Isolation kit (Promega, Madison, Wis.). Equal amounts of the total RNA (0.2 μg) were used to detect the mRNA levels of GAPDH, VEGF, β-FGF and APN by RT-PCR using the reagents purchased from Applied Biosystems. The sense and antisense oligonucleotide primers were synthesized at Integrated DNA Technologies, and PCR used 30 cycles. The negative controls consisted of omission of RNA or reverse transcriptase in the reaction mixture. PCR products were analyzed on a 2% agarose gel and were examined by using the Molecular Analyst/PC program (Bio-Rad). RT-PCR was conducted using the following primers: GAPDH (forward (F), 5′-[…]-3′, SEQ ID NO; 5; reverse (R), 5′-[…]-3′, SEQ ID NO: 6); VEGF (F, 5′-GCGGGCTGCCTCGCAGTC-3′, SEQ ID NO: 7; R, 5′-[…]-3′, SEQ ID NO: 8); β-FGF (F, 5′-[…]-3′, SEQ ID NO: 9; R, 5′-[…]-3′, SEQ ID NO: 10); TGF-β2 (F, 5′-[…]-3′, SEQ ID NO: 11; R, 5′-[…]-3′, SEQ ID NO: 12); APN (F, 5′-[…]-3′, SEQ ID NO: 13; R, 5′-[…]-3′, SEQ ID NO: 14)
# [1] = intraperitoneal (i.p.) injection, 25 μg rAPN or 50 μg 18 mer peptide
Molecule,"reduction in CNV size compared to control (laser-induced CNV; i-vit injection, single dose a day after laser, FIG. 7B)","reduction in CNV size compared to control (laser-induced CNV; i.p. injection, 50 μg/mouse, six daily injections, FIG. 7A)","neovascular complex in laser spots, confocal micrograph (laser-induced CNV; i.p. injection)",reduction of CNV size compared to control mice (laser-induced CNV),decrease in CNV size compared to control mice (laser-induced CNV; [1]),"neovascular complex in laser spots, confocal micrograph (laser-induced CNV; intravitreal injection)",decrease in CNV size compared to control mice (laser-induced CNV; intravitreal injection),effect on CNV size compared among adiponectin peptides (words) (laser-induced CNV),effect on CNV size compared among adiponectin peptides (words) (laser-induced CNV; listed as 18 mer synthetic peptide),"decrease in CNV size compared to control mice (laser-induced CNV; intravitreal injection, listed as APN)",VEGF expression in the choroids of laser-treated mice (VEGF)
"NH2-LQVYGDGDHNGLYADNVN-COOH (H-LQVYGDGDHNGLYADNVN-OH) [18 mer peptide, 18 mer synthetic peptide, amino acid residues 216-233 of mouse adiponectin globular domain]",significant reduction,significant reduction,significantly inhibited,70%,~80%,significantly inhibited,about 70%,as effective as the intact adiponectin protein,reduced the size of CNV similarly,,
B1,,,significantly inhibited,70%,80%,,about 70%,reduced the size of CNV similarly,,70%,inhibited VEGF expression
